Results: PMC6738096 (British Journal of Cancer, 2019)
Like-named read-outs stand apart in the source and are kept apart here.

How the values were obtained:
[1] = Plasma exposure in mice of the Karpas-299 study
ALK-positive tumours = assay: Phase 1 trial: clinical activity, tumour response by RECIST 1.1; assay type: in vivo, human; details: for Best overall response: Complete response / Best overall response: Progressive disease / Best overall response: Stable disease / Objective response: Complete response + partial response / Best overall response: Partial response: ALK-positive NSCLC, 40 mg every 8 hours; for Best overall response: Partial response: confirmed and unconfirmed
Description: The overall tumour response in all patients with measurable disease was evaluated, using Response Evaluation Criteria in Solid Tumors, version 1.1,[16] completed at times of radiologic assessment at weeks 4 and 8 after dosing and every 8 weeks thereafter. For patients without measurable disease at study entry, radiologic assessment was done as per investigator discretion.
While tumour response data were collected from 66 patients, here, we present response data only for patients with ALK-positive tumour samples (n = 22) receiving the RP2D (40 mg Q8h).

hERG = hERG (Homo sapiens, UniProt Q12809); assay: hERG in vitro test, displacement of dofetilide binding
calcium channel = assay: Functional patch-clamp test, calcium channel inhibition; assay type: cell-based
[2] = Telemetered dog cardiovascular study; assay type: in vivo
Description: Potential in vivo effects on the respiratory, central nervous and cardiovascular systems were evaluated in oral dose studies in rats and dogs.

[3] = Description: During the phase 1 trial, all patients were monitored by ECGs as part of safety evaluations. […] Cardiac function (QT, Bazett-corrected QT formula, Fridericia-corrected QT formula [QTcF], PR, QRS, RR and heart rate) was evaluated by a 12-lead ECG with triplicate readouts at scheduled time points, along with changes from baseline to each scheduled time point.
All the ΔQTcF data with matching drug concentration values were used for the analysis.

[4] = Phase 1 trial: plasma pharmacokinetics of TSR-011 IR (LC-MS/MS, noncompartmental analysis); assay type: in vivo, human
Description: To evaluate PK and establish the RP2D, blood samples were collected from all patients in the phase 1 dose-escalation trial at daily doses of 30–480 mg.
Plasma samples were processed through a Biotage (Uppsala, Sweden) ISOLUTE SLE + 200 μL of a 96-well-supported liquid extraction plate. […] The validated range was 0.87–433.25 nmol/L. The assay interbatch precision, expressed as percent coefficients of variation, ranged from 6.6 to 11.7%, and the interbatch accuracy, expressed as percent bias, ranged from –4.7 to 0.5%.
PK parameters were calculated using noncompartmental analysis (Phoenix WinNonlin version 7.0, Pharsight Corporation, Mountain View, CA, USA).

CYP2D6 = CYP2D6 (Homo sapiens, UniProt P10635); assay: biochemical
CYP3A4 = CYP3A4 (Homo sapiens, UniProt P08684); assay: biochemical
hNav1.5 = target: T1, hNav1.5 (Homo sapiens, UniProt Q14524); assay: hNav1.5 expressed in HEK-293 cells; assay type: cell-based; details: read-out: IC50 against hNav1.5
T1 construct: expressed in transfected cells; host or cells: HEK-293

[5] = Prior ALK inhibitor-treated (n = 8)
[6] = ALK-positive patients (n = 22), 40 mg Q8h
[7] = previously treated with an ALK inhibitor, RP2D
[8] = single dose, over the 16-fold increase in dose (30–480 mg)
[9] = steady state, over the sixfold increase in dose (80–480 mg)

hERG, sequence (Q12809 whole entry): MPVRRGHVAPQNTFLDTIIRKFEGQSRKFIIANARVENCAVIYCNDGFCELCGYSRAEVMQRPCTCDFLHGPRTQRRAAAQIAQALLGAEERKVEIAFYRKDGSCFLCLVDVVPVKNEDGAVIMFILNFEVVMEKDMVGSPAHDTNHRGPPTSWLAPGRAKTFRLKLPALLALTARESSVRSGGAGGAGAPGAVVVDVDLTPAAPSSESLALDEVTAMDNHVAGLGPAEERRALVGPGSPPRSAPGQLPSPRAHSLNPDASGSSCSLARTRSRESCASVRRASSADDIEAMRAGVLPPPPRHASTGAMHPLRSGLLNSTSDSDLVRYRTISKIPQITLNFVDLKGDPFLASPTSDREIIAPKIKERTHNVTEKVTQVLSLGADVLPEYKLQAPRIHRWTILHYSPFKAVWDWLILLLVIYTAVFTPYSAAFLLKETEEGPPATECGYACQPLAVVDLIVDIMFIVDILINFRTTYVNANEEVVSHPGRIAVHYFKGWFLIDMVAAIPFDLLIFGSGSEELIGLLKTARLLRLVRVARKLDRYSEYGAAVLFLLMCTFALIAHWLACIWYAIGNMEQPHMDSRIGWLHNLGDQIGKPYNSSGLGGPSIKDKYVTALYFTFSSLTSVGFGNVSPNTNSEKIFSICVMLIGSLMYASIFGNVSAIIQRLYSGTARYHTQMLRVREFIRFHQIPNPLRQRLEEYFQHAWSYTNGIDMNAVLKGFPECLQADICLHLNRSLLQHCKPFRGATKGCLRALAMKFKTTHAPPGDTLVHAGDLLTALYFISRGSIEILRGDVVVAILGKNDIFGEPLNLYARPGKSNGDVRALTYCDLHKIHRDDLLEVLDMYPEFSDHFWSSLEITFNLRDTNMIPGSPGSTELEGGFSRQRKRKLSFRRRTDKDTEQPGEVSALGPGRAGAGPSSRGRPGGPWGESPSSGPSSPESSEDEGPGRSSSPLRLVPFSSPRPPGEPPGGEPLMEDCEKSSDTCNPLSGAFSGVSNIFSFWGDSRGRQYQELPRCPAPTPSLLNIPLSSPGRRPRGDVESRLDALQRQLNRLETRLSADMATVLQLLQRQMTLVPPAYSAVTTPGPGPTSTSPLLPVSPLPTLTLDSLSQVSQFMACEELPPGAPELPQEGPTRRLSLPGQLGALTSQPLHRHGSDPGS
CYP2D6, sequence (P10635 whole entry): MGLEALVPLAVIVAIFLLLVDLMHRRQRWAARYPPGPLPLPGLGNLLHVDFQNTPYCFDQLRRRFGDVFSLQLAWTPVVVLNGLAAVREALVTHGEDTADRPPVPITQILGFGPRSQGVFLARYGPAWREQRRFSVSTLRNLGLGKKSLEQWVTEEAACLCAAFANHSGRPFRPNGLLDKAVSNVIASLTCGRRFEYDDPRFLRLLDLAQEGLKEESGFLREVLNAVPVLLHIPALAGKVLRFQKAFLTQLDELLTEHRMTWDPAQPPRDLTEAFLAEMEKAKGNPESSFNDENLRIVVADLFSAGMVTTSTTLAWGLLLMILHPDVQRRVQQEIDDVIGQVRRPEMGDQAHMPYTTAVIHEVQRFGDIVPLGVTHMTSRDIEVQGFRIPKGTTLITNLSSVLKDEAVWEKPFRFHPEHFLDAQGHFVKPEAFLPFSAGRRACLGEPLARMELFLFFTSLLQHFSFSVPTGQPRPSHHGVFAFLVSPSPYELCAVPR
CYP3A4, sequence (P08684 whole entry): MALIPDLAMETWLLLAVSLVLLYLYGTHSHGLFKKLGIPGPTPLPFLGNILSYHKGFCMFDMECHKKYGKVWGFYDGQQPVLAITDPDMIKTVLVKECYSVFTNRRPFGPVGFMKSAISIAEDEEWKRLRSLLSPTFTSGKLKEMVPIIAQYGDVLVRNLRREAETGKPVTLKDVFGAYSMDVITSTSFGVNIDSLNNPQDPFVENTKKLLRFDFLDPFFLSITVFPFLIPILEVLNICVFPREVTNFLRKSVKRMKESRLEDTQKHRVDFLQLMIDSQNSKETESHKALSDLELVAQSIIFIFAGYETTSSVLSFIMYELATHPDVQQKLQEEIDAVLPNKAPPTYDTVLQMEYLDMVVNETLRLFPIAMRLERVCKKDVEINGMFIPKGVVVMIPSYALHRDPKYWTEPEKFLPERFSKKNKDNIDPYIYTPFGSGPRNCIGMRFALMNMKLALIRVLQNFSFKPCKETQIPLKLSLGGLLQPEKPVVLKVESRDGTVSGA
T1 sequence (Q14524 whole entry): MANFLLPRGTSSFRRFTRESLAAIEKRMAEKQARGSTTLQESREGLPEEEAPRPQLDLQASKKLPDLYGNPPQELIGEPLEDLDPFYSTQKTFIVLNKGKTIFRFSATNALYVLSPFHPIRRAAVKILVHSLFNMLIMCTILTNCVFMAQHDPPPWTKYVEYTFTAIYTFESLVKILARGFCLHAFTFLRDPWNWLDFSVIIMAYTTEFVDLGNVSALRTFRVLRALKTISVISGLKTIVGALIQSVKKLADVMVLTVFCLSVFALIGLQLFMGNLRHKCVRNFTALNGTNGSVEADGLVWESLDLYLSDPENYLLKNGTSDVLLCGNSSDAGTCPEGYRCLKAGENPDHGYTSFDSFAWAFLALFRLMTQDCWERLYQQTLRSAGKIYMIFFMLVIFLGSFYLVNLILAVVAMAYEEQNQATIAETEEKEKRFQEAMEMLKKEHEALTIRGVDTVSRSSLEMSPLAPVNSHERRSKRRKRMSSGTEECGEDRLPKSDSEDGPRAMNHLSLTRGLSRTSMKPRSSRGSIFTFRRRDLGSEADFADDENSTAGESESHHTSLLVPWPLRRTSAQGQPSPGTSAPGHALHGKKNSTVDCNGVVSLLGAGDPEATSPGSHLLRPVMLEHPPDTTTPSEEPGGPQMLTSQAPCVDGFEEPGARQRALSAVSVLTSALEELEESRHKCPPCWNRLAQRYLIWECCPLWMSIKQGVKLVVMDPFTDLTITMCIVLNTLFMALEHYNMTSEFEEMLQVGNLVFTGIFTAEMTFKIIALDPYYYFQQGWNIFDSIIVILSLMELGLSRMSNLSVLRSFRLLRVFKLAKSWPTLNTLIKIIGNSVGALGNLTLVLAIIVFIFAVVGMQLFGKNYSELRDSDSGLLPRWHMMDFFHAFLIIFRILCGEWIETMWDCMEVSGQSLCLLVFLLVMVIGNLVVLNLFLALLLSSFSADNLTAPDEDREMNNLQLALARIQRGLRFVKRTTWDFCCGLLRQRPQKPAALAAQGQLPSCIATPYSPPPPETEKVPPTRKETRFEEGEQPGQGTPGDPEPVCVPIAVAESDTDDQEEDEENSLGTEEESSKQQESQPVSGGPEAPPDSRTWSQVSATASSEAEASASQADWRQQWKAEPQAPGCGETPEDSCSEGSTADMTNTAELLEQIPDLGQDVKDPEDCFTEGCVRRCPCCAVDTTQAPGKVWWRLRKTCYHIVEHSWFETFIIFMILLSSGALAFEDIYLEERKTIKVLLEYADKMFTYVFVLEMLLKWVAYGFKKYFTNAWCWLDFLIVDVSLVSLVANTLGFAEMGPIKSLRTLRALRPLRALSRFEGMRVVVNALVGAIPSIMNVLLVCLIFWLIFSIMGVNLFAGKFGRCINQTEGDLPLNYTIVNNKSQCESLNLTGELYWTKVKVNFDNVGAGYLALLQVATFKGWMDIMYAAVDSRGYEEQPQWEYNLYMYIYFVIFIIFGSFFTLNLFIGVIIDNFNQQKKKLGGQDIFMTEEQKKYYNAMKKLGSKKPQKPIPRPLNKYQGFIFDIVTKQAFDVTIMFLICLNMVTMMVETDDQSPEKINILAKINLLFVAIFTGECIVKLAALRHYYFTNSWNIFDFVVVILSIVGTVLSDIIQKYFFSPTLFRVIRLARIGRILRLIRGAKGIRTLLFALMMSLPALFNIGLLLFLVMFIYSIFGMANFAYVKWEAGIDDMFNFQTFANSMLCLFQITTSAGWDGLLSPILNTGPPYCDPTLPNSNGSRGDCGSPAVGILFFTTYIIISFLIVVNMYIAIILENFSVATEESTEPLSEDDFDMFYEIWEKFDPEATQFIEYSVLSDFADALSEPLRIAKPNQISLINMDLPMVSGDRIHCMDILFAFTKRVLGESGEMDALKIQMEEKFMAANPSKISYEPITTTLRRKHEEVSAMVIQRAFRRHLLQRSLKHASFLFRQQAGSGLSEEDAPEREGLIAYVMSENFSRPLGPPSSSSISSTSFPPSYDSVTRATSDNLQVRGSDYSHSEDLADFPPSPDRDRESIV

CC(C)NC(=O)[C@H]1CC[C@@H](n2c(NC(=O)c3ccc(F)cc3)nc3ccc(CN4CCC(C(C)(C)O)CC4)cc32)CC1 [TSR-011]
Overall 24-h exposure ([1]; oral daily dosing of 60 mg/kg): 15,500 ng×h/mL
Plasma concentration ([1]; oral dose 60 mg/kg, at 8 h): 698.00 nM
Partial response rate (ALK-positive tumours; ALK inhibitor-naive, RP2D): 42.9%
Stable disease, patients (ALK-positive tumours; ALK inhibitor-naive, RP2D): 57.1%
Objective response rate (ALK-positive tumours; ALK pre-treated setting, RP2D): 12.5%
Best overall response: Complete response (ALK-positive tumours; ALK inhibitor-naïve (n = 14)): 0 n (%)
Best overall response: Progressive disease (ALK-positive tumours; ALK inhibitor-naïve (n = 14)): 0 n (%)
Best overall response: Stable disease (ALK-positive tumours; ALK inhibitor-naïve (n = 14)): 8 (57.1) n (%)
Objective response: Complete response + partial response (ALK-positive tumours; ALK inhibitor-naïve (n = 14)): 6 (42.9) n (%)
Best overall response: Partial response (ALK-positive tumours; ALK inhibitor-naïve (n = 14)): 6 (42.9) n (%)
Best overall response: Complete response (ALK-positive tumours; All patients (N = 22)): 0 n (%)
Best overall response: Progressive disease (ALK-positive tumours; All patients (N = 22)): 1 (4.5) n (%)
Best overall response: Stable disease (ALK-positive tumours; All patients (N = 22)): 14 (63.6) n (%)
Objective response: Complete response + partial response (ALK-positive tumours; All patients (N = 22)): 7 (31.8) n (%)
Best overall response: Partial response (ALK-positive tumours; All patients (N = 22)): 7 (31.8) n (%)
Best overall response: Complete response (ALK-positive tumours; [5]): 0 n (%)
Best overall response: Progressive disease (ALK-positive tumours; [5]): 1 (12.5) n (%)
Best overall response: Stable disease (ALK-positive tumours; [5]): 6 (75.0) n (%)
Objective response: Complete response + partial response (ALK-positive tumours; [5]): 1 (12.5) n (%)
Best overall response: Partial response (ALK-positive tumours; [5]): 1 (12.5) n (%)
Complete response (ALK-positive tumours; [6]): No ALK-positive patient had a complete response
Stable disease, number of patients (ALK-positive tumours; [6]): 14
Partial response, number of patients (ALK-positive tumours; ALK-positive patients (n = 22), 40 mg Q8h, six confirmed, one unconfirmed): seven
Response of a patient with neuroblastoma harbouring ALK mutation (R1275Q) (ALK-positive tumours; one patient): did not respond
Partial response rate (ALK-positive tumours; [7]): 12.5%
Stable disease, patients (ALK-positive tumours; [7]): 75.0%
IC50 (hERG): 2.3 µM
IC50 (calcium channel): > 10 µM
Reversibility of cardiovascular parameters ([2]; oral 3, 10 and 15 mg/kg): returned to normal by the subsequent dose
PR interval ([2]; oral doses of 3, 10 and 15 mg/kg): dose-dependent prolongation of the PR interval
Body temperature ([2]; oral, at 15 mg/kg): mild and transient increase in body temperature
QRS duration ([2]; oral, at 10 and 15 mg/kg): small and dose-dependent increase in QRS duration
Heart rate ([2]; oral, at ≥ 3 mg/kg): Increased heart rate
QTc ([2]; oral, at ≥ 3 mg/kg): prolonged QTc
Pulse pressure ([2]; oral, at ≥ 10 mg/kg): decreased pulse pressure
Mean ΔQTcF ([3]; 120 mg QD (n = 1)): 19 ms
Upper bound of the two-sided 90% CI of mean ΔQTcF ([3]; 120 mg QD (n = 1)): 27 ms
Frequency of drug-related QTc prolongation ([3]; 40-mg TID (Q8h) RP2D): 9.7%
Patients with ΔQTc of > 60 ms and QTc > 500 ms (grade 3 event) ([3]; 40-mg TID (Q8h), one in 27 patients): 3.7%
Mean ΔQTcF ([3]; 40-mg TID cohort (n = 27), 90% CI 9.75–12.00 ms): 11 ms
ΔQTcF ([3]; QD doses at 240 mg (n = 3), 320 mg (n = 3) and 480 mg (n = 4)): > 20 ms
Slope of linear regression, plasma concentration versus ΔQTcF ([3]; all dose groups, 95% CI 0.01970–0.02747, P < 0.0001): 0.02358
Mean ΔQTcF ([3]; fractionated BID (Q12h) and TID (Q8h) regimens, cumulative daily doses of 60 and 120 mg, all four regimens): below 20 ms
Frequency of drug-related QTc prolongation ([3]; overall safety population): 16.7%
Highest concentration observed ([4]; 40-mg IR TID cohort): 2599.50 nmol/L
Mean Ctrough ([4]; 40-mg TID (Q8h), steady state day 29): 351.38 nM
Cmax at 696 h ([4]; human, plasma, po, 40-mg TID (Q8h), steady state day 29): 528 nM
half-life ([4]; human, plasma, po, cycle 1/day 1, across cohorts): 7 to 27 h
Vd/F ([4]; human, plasma, po, cycle 1/day 1, across cohorts, read-out: Apparent volume of distribution): 188 to 1620 L
Cmax ([4]; human, plasma, cycle 2/day 1, daily oral 80–480 mg): 447 to 3330 nM
Tmax ([4]; human, plasma, cycle 2/day 1, daily oral 80–480 mg, read-out: Median tmax): 2 to 6 h
Increase in geometric mean AUC from 0 to 24 h [4, 8]: 42 fold
Increase in geometric mean Cmax [4, 8]: 41 fold
Increase in exposure for AUC from time 0 to the last measurable concentration [4, 9]: 2.9 fold
Increase in exposure for Cmax [4, 9]: 3.3 fold
IC50 (CYP2D6): 32.9 µM
IC50 (CYP3A4): 23.3 µM
IC50 (hNav1.5): 7.6 µM
